{"source": "patent US9095594B2", "about": "“Pharmaceutical compositions comprising beta-lactam antibiotic, sulbactam and beta-lactamase inhibitor” (Wockhardt Ltd., priority 2011, dated 2015)", "test_in_all_cases": "Agar dilution MIC (CLSI)", "format_in_all_cases": "cell-based", "details_in_all_cases": "for MIC: Acinetobacter baumannii", "key": {"[1]": {"tested_on": "A. baumanii 13305 (ESBL strain)", "method": "(§1) In a typical study, overnight grown bacterial cultures were diluted appropriately and inoculated on the agar media containing doubling dilutions of the antibiotic. Observation for growth or no growth was performed after 16-20 hours of incubation at 35±2° C. in ambient air."}, "[2]": {"tested_on": "A. baumanii S-10 (ESBL strain)", "method": "as §1"}, "[3]": {"tested_on": "A. baumanii S-3 (ESBL strain)", "method": "as §1"}, "[4]": {"tested_on": "A. baumanii S-8 (ESBL strain)", "method": "as §1"}, "[5]": {"tested_on": "A. baumanii 13304 (ESBL strain)", "method": "as §1"}, "[6]": {"tested_on": "A. baumanii S-4 (ESBL strain)", "method": "as §1"}, "[7]": {"tested_on": "A. baumanii S-15 (ESBL strain)", "method": "as §1"}, "[8]": {"tested_on": "A. baumanii 13301 (ESBL strain)", "method": "as §1"}}, "note": "Where a name gives a salt, the structure may show the parent alone. Read-outs that look alike come from different tables or passages of the source.", "data": [{"compound": "NC(=O)[C@@H]1CC[C@@H]2CN1C(=O)N2OS(=O)(=O)O", "note": "[NXL-104, sodium salt of trans-7-oxo-6-(sulphooxy)-1,6-diazabicyclo-[3.2.1]-octane-2-carboxamide]", "values": [{"measurement": "MIC of NXL-104 in presence of Sulbactam (4 mcg/ml)", "setting": "[1]; A. baumanii 13305, Sulbactam 4 mcg/ml", "value": 2, "unit": "µg/mL"}, {"measurement": "MIC", "setting": "[1]; alone, A. baumanii 13305, read-out: MIC", "value": "> 64", "unit": "µg/mL"}, {"measurement": "MIC of NXL-104 in presence of Sulbactam (4 mcg/ml)", "setting": "[2]; A. baumanii S-10, Sulbactam 4 mcg/ml", "value": 16, "unit": "µg/mL"}, {"measurement": "MIC", "setting": "[2]; alone, A. baumanii S-10, read-out: MIC", "value": "> 64", "unit": "µg/mL"}, {"measurement": "MIC of NXL-104 in presence of Sulbactam (4 mcg/ml)", "setting": "[3]; A. baumanii S-3, Sulbactam 4 mcg/ml", "value": 16, "unit": "µg/mL"}, {"measurement": "MIC", "setting": "[3]; alone, A. baumanii S-3, read-out: MIC", "value": "> 64", "unit": "µg/mL"}, {"measurement": "MIC of NXL-104 in presence of Sulbactam (4 mcg/ml)", "setting": "[4]; A. baumanii S-8, Sulbactam 4 mcg/ml", "value": 16, "unit": "µg/mL"}, {"measurement": "MIC", "setting": "[4]; alone, A. baumanii S-8, read-out: MIC", "value": "> 64", "unit": "µg/mL"}, {"measurement": "MIC of NXL-104 in presence of Sulbactam (4 mcg/ml)", "setting": "[5]; A. baumanii 13304, Sulbactam 4 mcg/ml", "value": 2, "unit": "µg/mL"}, {"measurement": "MIC", "setting": "[5]; alone, A. baumanii 13304, read-out: MIC", "value": "> 64", "unit": "µg/mL"}, {"measurement": "MIC of NXL-104 in presence of Sulbactam (4 mcg/ml)", "setting": "[6]; A. baumanii S-4, Sulbactam 4 mcg/ml", "value": 16, "unit": "µg/mL"}, {"measurement": "MIC", "setting": "[6]; alone, A. baumanii S-4, read-out: MIC", "value": "> 64", "unit": "µg/mL"}, {"measurement": "MIC of NXL-104 in presence of Sulbactam (4 mcg/ml)", "setting": "[7]; A. baumanii S-15, Sulbactam 4 mcg/ml", "value": 16, "unit": "µg/mL"}, {"measurement": "MIC", "setting": "[7]; alone, A. baumanii S-15, read-out: MIC", "value": "> 64", "unit": "µg/mL"}, {"measurement": "MIC of NXL-104 in presence of Sulbactam (4 mcg/ml)", "setting": "[8]; A. baumanii 13301, Sulbactam 4 mcg/ml", "value": 2, "unit": "µg/mL"}, {"measurement": "MIC", "setting": "[8]; alone, A. baumanii 13301, read-out: MIC", "value": "> 64", "unit": "µg/mL"}]}, {"compound": "CC1(C)[C@H](C(=O)O)N2C(=O)C[C@H]2S1(=O)=O", "note": "[Sulbactam, sulbactam]", "values": [{"measurement": "MIC", "setting": "[1]", "value": 16, "unit": "µg/mL"}, {"measurement": "MIC", "setting": "[2]", "value": "> 32", "unit": "µg/mL"}, {"measurement": "MIC", "setting": "[3]", "value": "> 32", "unit": "µg/mL"}, {"measurement": "MIC", "setting": "[4]", "value": "> 32", "unit": "µg/mL"}, {"measurement": "MIC", "setting": "[5]", "value": "> 32", "unit": "µg/mL"}, {"measurement": "MIC", "setting": "[6]", "value": "> 32", "unit": "µg/mL"}, {"measurement": "MIC", "setting": "[7]", "value": "> 32", "unit": "µg/mL"}, {"measurement": "MIC", "setting": "[8]", "value": "> 32", "unit": "µg/mL"}]}]}
